# According to publication PMC6201272 (Journal of natural products, 2016):
# Tests used:
# [1] = tested on: E.faecium ATCC 51299; test: MIC determination; type: cell-based, Enterococcus faecium; conditions: duplicate, at least two independent experiments
# [2] = tested on: E.faecium ATCC 29212; test: MIC determination; type: cell-based, Enterococcus faecium; conditions: duplicate, at least two independent experiments
# [3] = tested on: S. aureus ATCC 29213; test: MIC determination; type: cell-based, Staphylococcus aureus; conditions: duplicate, at least two independent experiments
# [4] = tested on: P. aeruginosa ATCC 27853; test: MIC determination, P. aeruginosa ATCC 27853; type: cell-based
# [5] = tested on: monkey kidney cell line (BSC-1); test: Cytotoxicity against monkey kidney cell line BSC-1; type: cell-based
# [6] = tested on: S. aureus ATCC 43300; test: MIC determination; type: cell-based, Staphylococcus aureus; conditions: duplicate, at least two independent experiments
# [7] = tested on: E. coli ATCC 25922; test: MIC determination; type: cell-based, Escherichia coli; conditions: for Minimum inhibitory concentration, E. coli ATCC 25922: MIC, duplicate, at least two independent experiments
# [8] = tested on: C. albicans ATCC 28517; test: MIC determination, C. albicans ATCC 28517; type: cell-based
# [9] = tested on: bacteria (broad-spectrum); conditions: cited from earlier work
# [10] = tested on: bacterial strains and cell lines of Table 3; test: Cytotoxity and antibacterial activity, all assays; type: cell-based
# [11] = tested on: human colorectal tumor cell line (HCT-116); test: Cytotoxicity against human colorectal tumor cell line HCT-116; type: cell-based; conditions: maximum tested concentration 50 μg/mL
Compound,"Minimum inhibitory concentration, E.faecium ATCC 51299 [1] [µg/mL]","Minimum inhibitory concentration, E.faecium ATCC 29212 [2] [µg/mL]","Minimum inhibitory concentration, S. aureus ATCC 29213 [3] [µg/mL]","Minimum inhibitory concentration, P. aeruginosa ATCC 27853 [4] [µg/mL]",Cytotoxicity Bsc-1 (IC50) [5] [µg/mL],"Minimum inhibitory concentration, S. aureus ATCC 43300 [6] [µg/mL]","Minimum inhibitory concentration, E. coli ATCC 25922 [7] [µg/mL]","Minimum inhibitory concentration, C. albicans ATCC 28517 [8] [µg/mL]",Antibacterial activity previously reported (in words) [9],Inhibition of growth of E. coli (in words) ([7]; authors' antimicrobial assays),Cytotoxity and antibacterial activity in all assays (in words) [10],Toxicity against HCT-116 (in words) [11]
"1-(4′,5′,6′-Tribromo-1′-methoxyphenoxy)-3,5-dibromo-2-methoxybenzene [Compound 5a]",>50,>50,>50,>50,>50,>50,>50,>50,,,,
Oc1c(Br)cc(Br)cc1Oc1ccc(Br)cc1Br [Compound 10],,,,,,,,,broad-spectrum antibacterial activity,did not inhibit the growth,,
"COc1c(Br)cc(Br)cc1Oc1c(Br)c(OC)c(Br)c(Br)c1OC [Compound 8a, 1-(3′,5′,6′-Tribromo-1′,4′-dimethoxy-1′-phenoxy)-3,5-dibromo-2-methoxybenzene]",,,,,,,,,,,inactive in all assays,nontoxic
"1-(3′,4′,6′-Tribromo-1′-methoxyphenoxy)-3,5-dibromo-2-methoxybenzene [Compound 3a]",>50,50,>50,>50,>50,>50,>50,>50,,,,
